Patent publication US6555375B1, “Methods for somatic embryo formation and plant regeneration of Beta vulgaris” (priority 2000, dated 2003)

System: embryogenic tissue masses of sugar beet
Experiment: Repetitive embryogenic culture: optimization of proliferation medium
Assay type: cell-based, Beta vulgaris
Description: These embedded tissues were manually isolated, separated and transferred into liquid medium (MS medium+BAP 0.2 mg/L). The cultures were maintained at constant agitation (100 rpm) in the dark with biweekly changes of the medium. […] Clumps of white embryogenic tissue masses were divided and transferred to fresh medium for further proliferation. […] Part of these tissues was used for the optimization of culture medium.
The optimization of proliferation medium was conducted through several stages. Each stage lasted for two weeks.

[1] = III. MSE, sucrose 6%, BAP 0.1 mg/l, pH 5.7, amino acid 2 mg/L
[2] = III. MSE, sucrose 6%, BAP 0.1 mg/l, pH 5.7, amino acid 200 mg/L
[3] = II. MSE, sucrose 6%, glutamine 2 mg/L, pH 5.7, phytohormone 0.1 mg/L
[4] = I. MSE, BAP 0.2 mg/L, glutamine 2 mg/L, pH 5.7, carbon source 6%

In the case of `O=C(O)COc1ccc(Cl)cc1Cl` [2,4D, 2,4-dichlorophenoxyacetic acid], the “colour of vitrified tissues” value is reported as “caused bleaching of vitrified tissues”, the “Effect of media on repetitive embryogenic culture (description)” value (shortened to “Effect of media”) (IV. MSE, sucrose 6%, glycine 2 mg/L, pH 5.7, phytohormone 0.1 mg/L) is reported as “Pale yellow tissues with white embryos; red pigmentation is repressed” and the “effect on embryo proliferation” value (presence in the medium) is reported as “negative effect”.
With `NC(=O)CC[C@H](N)C(=O)O` [Glutamine, glutamine] the “colour of vitrified tissues” value was “caused bleaching of vitrified tissues”, the “Effect of media” value [1] was “Slowly growing, dark yellow tissues” and the “Effect of media” value [2] was “Slowly growing, dark yellow tissues”.
With `NCC(=O)O` [Glycine, glycine] the “Effect of media” value [1] was “Tissues are light yellow”, the “white embryos, share of tissues” value [1] was 30% and the “Effect of media” value [2] was “Slowly growing, mostly meristematic, vitrified tissues”.
In the case of `c1coc(CNc2ncnc3[nH]cnc23)c1` [Kin, kinetin], the “Effect of media” value [3] is reported as “Slowly growing, mostly meristematic, vitrified tissues”.
`OC[C@@H](O)[C@@H](O)[C@H](O)[C@H](O)CO` [Mannitol, mannitol] was tested, and the “Effect of media” value [4] was “No growth, total necrosis”.
For `OC[C@@H](O)[C@@H](O)[C@H](O)[C@@H](O)CO` [Sorbitol, sorbitol], the “Effect of media” value [4] was “No growth, total necrosis”.
In the case of `OC[C@H]1O[C@@](CO)(O[C@H]2O[C@H](CO)[C@@H](O)[C@H](O)[C@H]2O)[C@@H](O)[C@@H]1O` [Sucrose, sucrose], the “optimization of proliferation medium by modification of sucrose content” value is reported as “did not lead to any further improvement”, the “Effect of media” value [4] is reported as “A lot of repetitive white embryos” and the “Effect of media” value (V. MSE, BAP 0.1 mg/L, glycine 2 mg/L, pH 5.7, sucrose at 3%) is reported as “Necrosis of all tissues”. The “Effect of media” value (V. MSE, BAP 0.1 mg/L, glycine 2 mg/L, pH 5.7, sucrose at 6%) was “A lot of repetitive white embryos”, the “Effect of media” value (V. MSE, BAP 0.1 mg/L, glycine 2 mg/L, pH 5.7, sucrose at 8%) was “Growth is inhibited” and the “Effect of media” value (V. MSE, BAP 0.1 mg/L, glycine 2 mg/L, pH 5.7, sucrose at 10%) was “Growth is inhibited”. The “Effect of media” value (V. MSE, BAP 0.1 mg/L, glycine 2 mg/L, pH 5.7, sucrose at 12%) was “Growth is inhibited”.
In the case of `C/C(=C\CNc1ncnc2[nH]cnc12)CO` [Zea, zeatin], the “Effect of media” value [3] is reported as “Slowly growing, mostly meristematic, vitrified tissues”.
